This passage reports IC50 results from US10150764B2, “Substituted benzene compounds” (Epizyme, Inc., priority 2013, dated 2018).

For test [1], the target named is wild-type EZH2 (PRC2 enzyme) (Homo sapiens (Human), UniProt Q15910). Briefly: PRC2 enzyme assay on peptide substrate, wild-type EZH2 (H3K27me0 peptide, 3H-SAM Flashplate). It is filed as biochemical. Particulars: wild-type PRC2 4 nM, read-out: WT EZH2 IC50.
Description: (§1) Human PRC2 enzymes were purified as 4-component enzyme complexes co-expressed in Spodoptera frugiperda (sf9) cells using a baculovirus expression system. […] The EED subunit contained an N-terminal FLAG tag that was used to purify the entire 4-component complex from sf9 cell lysates.
(§2) The assays were all performed in a buffer consisting of 20 mM bicine (pH=7.6), 0.5 mM DTT, 0.005% BSG and 0.002% Tween20, prepared on the day of use. […] DMSO (1 μL) was added to columns 11, 12, 23, 24, rows A-H for the maximum signal control, and SAH, a known product and inhibitor of PRC2 (1 μL) was added to columns 11, 12, 23, 24, rows I-P for the minimum signal control. A cocktail (40 μL) containing the wild-type PRC2 enzyme and H3K27me0 peptide or any of the Y641 mutant enzymes and H3K27me2 peptide was added by Multidrop Combi (Thermo). The compounds were allowed to incubate with PRC2 for 30 min at 25° C., then a cocktail (10 μL) containing a mixture of non-radioactive and ^3H-SAM was added to initiate the reaction (final volume=51 μL). […] The assays were stopped by the addition of non-radioactive SAM (10 μL) to a final concentration of 600 μM, which dilutes the ^3H-SAM to a level where its incorporation into the peptide substrate is no longer detectable. 50 of the reaction in the 384-well polypropylene plate was then transferred to a 384-well Flashplate and the biotinylated peptides were allowed to bind to the streptavidin surface for at least 1 h before being washed three times with 0.1% Tween20 in a Biotek ELx405 plate washer. The plates were then read in a PerkinElmer TopCount platereader to measure the quantity of ^3H-labeled peptide bound to the Flashplate surface, measured as disintegrations per minute (dpm) or alternatively, referred to as counts per minute (cpm).
Test [2] addresses EZH2 Y641F mutant (PRC2 enzyme) (Homo sapiens (Human), UniProt Q15910, Y641F). Briefly: PRC2 enzyme assay on peptide substrate, EZH2 Y641F mutant (H3K27me2 peptide, 3H-SAM Flashplate). In kind it is biochemical. Particulars: Y641F mutant PRC2 4 nM.
Description: as §1, §2
The test system of test [3] is H3K27me3 in WSU-DLCL2 cells. Briefly: WSU-DLCL2 methylation assay (H3K27me3 ELISA). In kind it is cell-based, human. Conditions: Homo sapiens, WSUDLCL2, 96 hours incubation, H3K27me3 normalised to total H3.
Excerpt: WSU-DLCL2 Methylation Assay
WSU-DLCL2 suspension cells were purchased from DSMZ (German Collection of Microorganisms and Cell Cultures, Braunschweig, Germany). RPMI/Glutamax Medium, Penicillin-Streptomycin, Heat Inactivated Fetal Bovine Serum, and D-PBS were purchased from Life Technologies, Grand Island, N.Y., USA. Extraction Buffer and Neutralization Buffer (5×) were purchased from Active Motif, Carlsbad, Calif., USA. Rabbit anti-Histone H3 antibody was purchased from Abcam, Cambridge, Mass., USA. Rabbit anti-H3K27me3 and HRP-conjugated anti-rabbit-IgG were purchased from Cell Signaling Technology, Danvers, Mass., USA. TMB “Super Sensitive” substrate was sourced from BioFX Laboratories, Owings Mills, Md., USA. IgG-free Bovine Serum Albumin was purchased from Jackson ImmunoResearch, West Grove, Pa., USA. PBS with Tween (10×PBST) was purchased from KPL, Gaithersburg, Md., USA. Sulfuric Acid was purchased from Ricca Chemical, Arlington, Tex., USA. Immulon ELISA plates were purchased from Thermo, Rochester, N.Y., USA. V-bottom cell culture plates were purchased from Corning Inc., Corning, N.Y., USA. V-bottom polypropylene plates were purchased from Greiner Bio-One, Monroe, N.C., USA.
WSU-DLCL2 suspension cells were maintained in growth medium (RPMI 1640 supplemented with 10% v/v heat inactivated fetal bovine serum and 100 units/mL penicillin-streptomycin) and cultured at 37° C. under 5% CO2. Under assay conditions, cells were incubated in Assay Medium (RPMI 1640 supplemented with 20% v/v heat inactivated fetal bovine serum and 100 units/mL penicillin-streptomycin) at 37° C. under 5% CO2 on a plate shaker.
WSU-DLCL2 cells were seeded in assay medium at a concentration of 50,000 cells per mL to a 96-well V-bottom cell culture plate with 200 μL per well. […] Plates were incubated on a titer-plate shaker at 37° C., 5% CO2 for 96 hours. After four days of incubation, plates were spun at 241×g for five minutes and medium was aspirated gently from each well of cell plate without disturbing cell pellet. Pellet was resuspended in: 200 μL DPBS and plates were spun again at 241×g for five minutes. The supernatant was aspirated and cold (4° C.) Extraction buffer (100 μL) was added per well. Plates were incubated at 4° C. on orbital shaker for two hours. Plates were spun at 3427×g×10 minutes. Supernatant (80 μL per well) was transferred to its respective well in 96 well V-bottom polypropylene plate. Neutralization Buffer 5× (20 μL per well) was added to V-bottom polypropylene plate containing supernatant. V-bottom polypropylene plates containing crude histone preparation (CHP) were incubated on orbital shaker×five minutes. Crude Histone Preparations were added (2 μL per well) to each respective well into duplicate 96 well ELISA plates containing 100 μL Coating Buffer (1×PBS+BSA 0.05% w/v). Plates were sealed and incubated overnight at 4° C. The following day, plates were washed three times with 300 μL per well 1×PBST. […] For H3K27me3 detection, 100 μL of HRP conjugated anti-rabbit IgG antibody diluted to 1:4000 in ELISA diluent was added per well. Plates were incubated at room temperature for 90 minutes. […] TMB substrate 100 μL was added per well. Histone H3 plates were incubated for five minutes at room temperature. H3K27me3 plates were incubated for 10 minutes at room temperature. The reaction was stopped with sulfuric acid 1N (100 μL per well). Absorbance for each plate was read at 450 nm.
Each plate included eight control wells DMSO only treatment (Minimum Inhibition) as well as eight control wells for maximum inhibition (Background wells).
The average of the ratio values for each control type was calculated and used to determine the percent inhibition for each test well in the plate. Test compound was serially diluted three-fold in DMSO for a total of ten test concentrations, beginning at 25 μM.
For a further test, the system named is WSU-DLCL2 cells. Put plainly: Cell proliferation analysis, WSU-DLCL2 (Cell Titer Glo). It is filed as cell-based. Particulars: Homo sapiens, WSUDLCL2, 144 h, 6 days incubation, ATP readout. The source says:
Cell Proliferation Analysis
WSU-DLCL2 suspension cells were purchased from DSMZ (German Collection of Microorganisms and Cell Cultures, Braunschweig, Germany), RPMI/Glutamax Medium, Penicillin-Streptomycin, Heat Inactivated Fetal Bovine Serum were purchased from Life Technologies, Grand Island, N.Y., USA, V-bottom polypropylene 384-well plates were purchased from Greiner Bio-One, Monroe, N.C., USA. Cell culture 384-well white opaque plates were purchased from Perkin Elmer, Waltham, Mass., USA. Cell-Titer Glo® was purchased from Promega Corporation, Madison, Wis., USA. SpectraMax M5 plate reader was purchased from Molecular Devices LLC, Sunnyvale, Calif., USA.
WSU-DLCL2 suspension cells were maintained in growth medium (RPMI 1640 supplemented with 10% v/v heat inactivated fetal bovine serum and cultured at 37° C. under 5% CO2. Under assay conditions, cells were incubated in Assay Medium (RPMI 1640 supplemented with 20% v/v heat inactivated fetal bovine serum and 100 units/mL penicillin-streptomycin) at 37° C. under 5% CO2.
For the assessment of the effect of compounds on the proliferation of the WSU-DLCL2 cell line, exponentially growing cells were plated in 384-well white opaque plates at a density of 1250 cell/ml in a final volume of 50 μl of assay medium. A compound source plate was prepared by performing triplicate nine-point 3-fold serial dilutions in DMSO, beginning at 10 mM (final top concentration of compound in the assay was 20 μM and the DMSO was 0.2%). A 100 nL aliquot from the compound stock plate was added to its respective well in the cell plate. […] After addition of compounds, assay plates were incubated for 6 days at 37° C., 5% CO2, relative humidity >90% for 6 days. Cell viability was measured by quantization of ATP present in the cell cultures, adding 35 μl of Cell Titer Glo® reagent to the cell plates. Luminescence was read in the SpectraMax M5. The concentration inhibiting cell viability by 50% was determined using a 4-parametric fit of the normalized dose response curves.

Structures are written as SMILES.

Chain of wild-type EZH2 (PRC2 enzyme) (Q15910 whole entry): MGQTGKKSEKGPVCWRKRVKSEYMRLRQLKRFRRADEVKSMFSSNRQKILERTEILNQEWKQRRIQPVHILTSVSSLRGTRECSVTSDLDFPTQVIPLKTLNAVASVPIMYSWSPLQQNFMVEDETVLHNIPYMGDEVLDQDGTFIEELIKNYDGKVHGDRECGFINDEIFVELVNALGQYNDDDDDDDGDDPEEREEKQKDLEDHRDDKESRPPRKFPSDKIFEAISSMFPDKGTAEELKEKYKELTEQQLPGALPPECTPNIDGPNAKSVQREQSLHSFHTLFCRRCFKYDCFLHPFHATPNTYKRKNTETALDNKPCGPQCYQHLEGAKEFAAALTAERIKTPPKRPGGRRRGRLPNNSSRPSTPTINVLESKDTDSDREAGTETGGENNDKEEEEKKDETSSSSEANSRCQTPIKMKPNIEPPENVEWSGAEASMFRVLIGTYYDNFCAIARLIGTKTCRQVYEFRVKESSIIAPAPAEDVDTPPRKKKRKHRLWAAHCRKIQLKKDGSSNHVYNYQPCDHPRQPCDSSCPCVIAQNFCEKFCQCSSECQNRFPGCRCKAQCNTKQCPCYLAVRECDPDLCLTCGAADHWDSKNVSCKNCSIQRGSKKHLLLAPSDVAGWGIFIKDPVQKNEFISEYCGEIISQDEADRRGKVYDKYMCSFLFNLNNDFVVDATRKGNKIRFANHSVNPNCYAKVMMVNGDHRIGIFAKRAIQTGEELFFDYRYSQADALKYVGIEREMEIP
Chain of wild-type EZH2 (PRC2 enzyme) (O75530 whole entry partner): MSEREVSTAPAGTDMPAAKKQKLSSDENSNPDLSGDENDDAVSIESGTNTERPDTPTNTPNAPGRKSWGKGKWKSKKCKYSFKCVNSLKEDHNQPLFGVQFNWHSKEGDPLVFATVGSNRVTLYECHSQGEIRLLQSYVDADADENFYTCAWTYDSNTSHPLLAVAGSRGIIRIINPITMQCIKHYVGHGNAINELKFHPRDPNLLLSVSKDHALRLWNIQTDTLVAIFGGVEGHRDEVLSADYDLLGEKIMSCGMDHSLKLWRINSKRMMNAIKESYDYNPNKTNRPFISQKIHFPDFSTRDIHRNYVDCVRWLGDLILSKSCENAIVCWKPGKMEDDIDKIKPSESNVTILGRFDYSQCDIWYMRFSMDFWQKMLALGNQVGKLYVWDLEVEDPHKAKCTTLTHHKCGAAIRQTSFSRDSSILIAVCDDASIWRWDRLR
Chain of wild-type EZH2 (PRC2 enzyme) (Q15022 whole entry partner): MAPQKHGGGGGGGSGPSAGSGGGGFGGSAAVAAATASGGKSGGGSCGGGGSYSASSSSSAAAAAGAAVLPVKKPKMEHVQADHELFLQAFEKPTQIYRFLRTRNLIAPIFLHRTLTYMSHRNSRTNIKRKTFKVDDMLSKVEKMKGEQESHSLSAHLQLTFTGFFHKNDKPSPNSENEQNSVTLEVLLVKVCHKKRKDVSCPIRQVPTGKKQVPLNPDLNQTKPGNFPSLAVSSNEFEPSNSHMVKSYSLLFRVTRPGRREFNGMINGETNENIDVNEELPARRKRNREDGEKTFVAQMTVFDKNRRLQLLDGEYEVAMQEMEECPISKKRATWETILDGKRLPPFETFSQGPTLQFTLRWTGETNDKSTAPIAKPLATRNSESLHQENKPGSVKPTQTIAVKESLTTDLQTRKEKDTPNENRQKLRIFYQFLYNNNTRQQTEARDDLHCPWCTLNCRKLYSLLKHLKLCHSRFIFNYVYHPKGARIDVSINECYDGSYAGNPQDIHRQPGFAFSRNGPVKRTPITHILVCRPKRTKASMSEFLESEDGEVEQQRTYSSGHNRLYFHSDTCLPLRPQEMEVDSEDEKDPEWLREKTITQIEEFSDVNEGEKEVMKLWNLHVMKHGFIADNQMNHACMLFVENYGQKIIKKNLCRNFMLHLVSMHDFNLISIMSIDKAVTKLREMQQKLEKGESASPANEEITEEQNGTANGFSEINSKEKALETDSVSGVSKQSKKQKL
Chain of wild-type EZH2 (PRC2 enzyme) (Q09028 whole entry partner): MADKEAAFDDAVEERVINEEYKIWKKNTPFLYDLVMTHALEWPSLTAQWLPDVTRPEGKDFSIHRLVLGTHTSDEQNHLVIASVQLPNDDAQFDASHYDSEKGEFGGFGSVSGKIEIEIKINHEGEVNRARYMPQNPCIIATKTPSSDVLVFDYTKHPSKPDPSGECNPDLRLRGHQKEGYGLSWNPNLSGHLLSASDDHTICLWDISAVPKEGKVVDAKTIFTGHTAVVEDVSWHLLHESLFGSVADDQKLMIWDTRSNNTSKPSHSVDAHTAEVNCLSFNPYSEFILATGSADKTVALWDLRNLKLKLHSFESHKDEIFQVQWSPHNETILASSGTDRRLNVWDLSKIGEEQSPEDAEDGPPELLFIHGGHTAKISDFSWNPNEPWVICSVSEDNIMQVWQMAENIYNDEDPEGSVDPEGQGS
Chain of EZH2 Y641F mutant (PRC2 enzyme) (Q15910 whole entry Y641F): as the sequence (Q15910 whole entry) above, with Y641F counted along it
Chain of EZH2 Y641F mutant (PRC2 enzyme) (O75530 whole entry partner): as the sequence (O75530 whole entry partner) above
Chain of EZH2 Y641F mutant (PRC2 enzyme) (Q15022 whole entry partner): as the sequence (Q15022 whole entry partner) above
Chain of EZH2 Y641F mutant (PRC2 enzyme) (Q09028 whole entry partner): as the sequence (Q09028 whole entry partner) above

In the case of `CCn1[nH]c(C)c(CNC(=O)c2cc(Cl)cc(N(CC)[C@H]3CC[C@H](N(C)C)CC3)c2C)c1=O` [Compound 36, 5-chloro-3-(((trans)-4-(dimethylamino)cyclohexyl)(ethyl)amino)-N-((2-ethyl-5-methyl-3-oxo-2,3-dihydro-1H-pyrazol-4-yl)methyl)-2-methylbenzamide], the IC50 in test [1] was 829 nM; in test [2], 114 nM; in test [3], 7970 nM; in the test with WSU-DLCL2 cells, greater than 20000 nM.
The like results for `CCN(c1cc(Cl)cc(C(=O)NCc2c(C)n(C)[nH]c2=O)c1C)[C@H]1CC[C@H](N(C)Cc2ccc(OC)cc2)CC1` [Compound 56, 5-chloro-N-((1,5-dimethyl-3-oxo-2,3-dihydro-1H-pyrazol-4-yl)methyl)-3-(ethyl((trans)-4-((4-methoxybenzyl)(methyl)amino)cyclohexyl)amino)-2-methylbenzamide] were, in that order, 25 nM, 11 nM, 4680 nM and 10700 nM.
The like results for `CCN(c1cc(-c2ccc(OCCOC)cc2)cc(C(=O)NCc2c(C)[nH]n(C)c2=O)c1C)[C@H]1CC[C@H](N(C)C)CC1` [Compound 35, N-((2,5-dimethyl-3-oxo-2,3-dihydro-1H-pyrazol-4-yl)methyl)-5-(((trans)-4-(dimethylamino)cyclohexyl)(ethyl)amino)-4′-(2-methoxyethoxy)-4-methyl-[1,1′-biphenyl]-3-carboxamide] were, in that order, 267 nM, 63 nM, 17900 nM and greater than 20000 nM.
